In patent US20250368606A1, “CRYSTALLINE FORMS AND SALT FORMS OF A KINASE INHIBITOR” (Exelixis, Inc., priority 2021, published 2025):
Values belong to the compound of their own block, whether it stands above or below them.

What was measured:
Type in all cases: physicochemical
[1] = Visual (aqueous) solubility estimation; conditions: water, thermodynamic from solid, visual observation
Procedure: Solubility Estimation: Aliquots of various solvents were added to measured amounts of Compound 1 with agitation (typically sonication) at stated temperatures until complete dissolution was achieved, as judged by visual observation.
Aqueous Solubility Estimation: Aliquots of water were added to measured amounts of various Compound 1 salts with sonication.

[2] = Physical stability (form conversion) of solid forms
[3] = Desolvation / drying attempts at elevated temperature, solids analysed by XRPD
Procedure: Vacuum Oven Desolvation: Salts of Compound 1 that were determined to be solvates by various analytical methods underwent an attempted desolvation. […] Samples were analyzed by XRPD and/or TGA for determination of desolvation success.

[4] = dried under vacuum at 80° C. for 1 day

solubility [1]: < 250 µg/mL
physical stability: resulting form on exposure to elevated temperature ([2]; elevated temperature): Material K
Compound: CNC(=O)c1cc2c(Oc3ccc(NC(=O)C4(C(=O)Nc5ccc(F)cc5)CC4)cc3)ccnc2cc1OC [Amorphous Compound 1, N-(4-fluorophenyl)-N-(4-((7-methoxy-6-(methylcarbamoyl)quinolin-4-yl)oxy)phenyl)cyclopropane-1,1-dicarboxamide]
physical stability: resulting form on contact with diethyl ether ([2]; immediately on contact with diethyl ether): crystallized to a mixture of Forms X and K

physical stability of the solvate ([2]; likely NMP solvate, only obtained as a mixture with Form A): readily converts to Form A
Compound: CNC(=O)c1cc2c(Oc3ccc(NC(=O)C4(C(=O)Nc5ccc(F)cc5)CC4)cc3)ccnc2cc1OC [Compound 1 Form S]

Compound: CNC(=O)c1cc2c(Oc3ccc(NC(=O)C4(C(=O)Nc5ccc(F)cc5)CC4)cc3)ccnc2cc1OC [Compound 1 Hemifumarate Form C]
form of post-drying solids (XRPD) [3, 4]: a mixture of Hemifumarate Form B, with trace Compound 1 free base Form A, and a few additional peaks

Compound: CNC(=O)c1cc2c(Oc3ccc(NC(=O)C4(C(=O)Nc5ccc(F)cc5)CC4)cc3)ccnc2cc1OC [Compound 1 Hemifumarate Form D]
form of post-drying solids (XRPD) [3, 4]: a mixture of Compound 1 free base Form A and Compound 1 Hemifumarate Form B

XRPD Results after desolvation attempt ([3]; 105-120° C. vacuum, 2 hours): Form K
XRPD Results after desolvation attempt ([3]; 110° C., 1 hour): Form K + X
Compound: CNC(=O)c1cc2c(Oc3ccc(NC(=O)C4(C(=O)Nc5ccc(F)cc5)CC4)cc3)ccnc2cc1OC [Form R]

XRPD Results after desolvation attempt ([3]; 60° C.-72° C. vacuum 6 days): Form T + Form U
XRPD Results after desolvation attempt ([3]; 70° C. vacuum 3 days): Form U + Form T
XRPD Results after desolvation attempt ([3]; 105-120° C. vacuum, 2 hours): Form T (blue grey)
XRPD Results after desolvation attempt ([3]; 170° C. 15 minutes): Form T + Form A (grey brown)
Compound: CNC(=O)c1cc2c(Oc3ccc(NC(=O)C4(C(=O)Nc5ccc(F)cc5)CC4)cc3)ccnc2cc1OC [Form U]

form of post-drying solids (XRPD) ([3]; dried under vacuum at 72° C. for 1 day): unique disordered crystalline pattern
Compound: CNC(=O)c1cc2c(Oc3ccc(NC(=O)C4(C(=O)Nc5ccc(F)cc5)CC4)cc3)ccnc2cc1OC [Hemifumarate Form E]

form of post-drying solids (XRPD) ([3]; post-drying sample further dried under vacuum at 88° C. for 1 day): maintained the same form
Compound: CNC(=O)c1cc2c(Oc3ccc(NC(=O)C4(C(=O)Nc5ccc(F)cc5)CC4)cc3)ccnc2cc1OC [Hemifumarate Form F]

physical stability under drying conditions (XRPD) ([3]; 120° C. for 30 minutes): A mixture of Napsylate Form B and Form C
Compound: CNC(=O)c1cc2c(Oc3ccc(NC(=O)C4(C(=O)Nc5ccc(F)cc5)CC4)cc3)ccnc2cc1OC [Napsylate Form A]
physical stability under drying conditions (XRPD) ([3]; 48° C. under vacuum for approximately 3 days): XRPD peaks attributed to Napsylate Form B increased in intensity
